Ends that are not written are not given here.
Tests used:
[1] = biological target: T1, caspase-9-p12 binding to BIR3 (Homo sapiens, UniProt P98170); assay: In vitro binding of BIR3 to immobilized p12-GST with or without competing peptide; conditions: 200 μM peptide; p12-GST immobilized onto glutathione resin
T1 construct: made in house; host or cells: bacteria (GST fusion)
Experimental: (§1) The C-terminal GST fusion proteins were expressed in bacteria and then immobilized onto glutathione-affinity resin. […] The caspase-9 deletion mutants used in these studies are represented by bar diagrams above the panel in FIG. 10.
The interactions were analyzed as in Example 3.

[2] = biological target: T2, isolated BIR3 domain of XIAP (Homo sapiens, UniProt P98170); assay: In vitro interaction assay of GST fusion proteins with 35S-labeled BIR3; format: binding; conditions: C-terminal GST fusion proteins immobilized onto glutathione-affinity resin
T2 construct: full length XIAP or the isolated BIR3 domain of XIAP; made in house; host or cells: in vitro translation (cell-free)
Excerpt: as §1

[3] = biological target: T3, full length XIAP (Homo sapiens, UniProt P98170); assay: In vitro interaction assay of GST fusion proteins with 35S-labeled XIAP; format: binding; conditions: C-terminal GST fusion proteins immobilized onto glutathione-affinity resin
T3 construct: full length XIAP or the isolated BIR3 domain of XIAP; made in house; host or cells: in vitro translation (cell-free)
Excerpt: as §1

[4] = biological target: T4, Smac/DIABLO binding to BIR3 (Homo sapiens, UniProt P98170); assay: In vitro binding of BIR3 to immobilized Smac-GST with or without competing peptide; conditions: 200 μM peptide; Smac-GST immobilized onto glutathione resin
T4 construct: Smac-GST was immobilized onto glutathione resin and then incubated with BIR3

[5] = biological target: T5, XIAP (Homo sapiens, UniProt P98170); assay: Cytochrome c-dependent caspase-3 activation in 293T S100 extracts containing XIAP (DEVD-AMC); format: biochemical; conditions: 25, 100 and 500 μM peptide, XIAP 10 nM, cytochrome c and dATP
T5 construct: made in house; host or cells: in vitro translation (cell-free)
Experimental: The activity of caspase-3 in the S100 extracts was measured using the peptide substrate DEVD-AMC.

[6] = biological target: T6, X-linked inhibitor of apoptosis protein (XIAP), full length (UniProt P98170 1-497); assay: gel filtration on Superose 6 and immunoblot of fractions
T6 construct: Used as in vitro translated 35S-labeled full length XIAP (pull-down, Far western) or as purified XIAP (holoenzyme experiments); also called full length XIAP; 35S-labeled XIAP

[7] = test system: procaspase-3 C163A; assay: Procaspase-3 processing and DEVD-AMC cleavage by caspase-9 reconstituted with Apaf-1; format: biochemical; conditions: 20 nM each with purified Apaf-1; cytochrome c and dATP
Experimental: Procaspase-3 processing assays were generally performed as described in Srinivasula, S. M. et al. J Biol Chem 275:36152-36157, 2000. In this assay, purified recombinant procaspase-3 C163A was incubated with equal amounts of recombinant WT or triple mutant caspase-9 protein (20 nM) in the presence (+) or absence (−) of recombinant Apaf-1 (20 nM). The reaction mixtures were stimulated with cytochrome c (50 ng/μl) and dATP (1 mM), incubated for 0-60 minutes at 30° C., and then analyzed by SDS-PAGE and western blot analysis (FIG. 3).
Caspase-3 enzymatic assays with the tetrapeptide substrate DEVD-AMC were generally performed as described in Srinivasula, S. M. et al. J Biol Chem 275:36152-36157, 2000. In this caspase-3 enzymatic assay, caspase-9-depleted S100 extracts from Apaf-1-deficient mouse embryonic fibroblasts were incubated with equal amounts of recombinant WT and triple mutant caspase-9 proteins together with Apaf-1, cytochrome c and dATP. The controls used in these assays represent WT and triple mutant caspase-9 proteins incubated as above without cytochrome c and dATP. The reactions were carried out in the presence of 100 μM of DEVD-AMC for 0-120 minutes, and substrate cleavage was measured by luminescence spectrometry using a Perkin Elmer Luminescence spectrometer and represented in arbitrary spectrometric units.

[8] = biological target: T5, XIAP; assay: Far Western blot analysis with 35S-labeled XIAP; format: binding
Experimental: Recombinant WT caspase-9, E306/D315/D330A, D315/330A, or D315A caspase-9 mutants, p12, p10, or Smac/DIABLO GST-fusion proteins were fractionated by SDS-PAGE and then blotted onto a nitrocellulose membrane using standard Western blotting technique. The proteins on the nitrocellulose membrane were denatured in a buffer (10 mM sodium phosphate pH 7.4, 150 mM sodium chloride, 5 mM magnesium chloride and 1 mM DTT) containing 6 M guanidine-HCl. These proteins were then renatured by gradual reduction of guanidine-HCl to 0.3 M. The membrane was blocked overnight in the same buffer containing 5% non-fat dry milk. The membrane was then probed with ^35S-labeled in vitro translated XIAP in the same buffer with 1% non-fat dry milk. The membrane was washed at least three times and then exposed to X-ray film.

[9] = biological target: T7, XIAP-BIR3 (Homo sapiens, UniProt P98170); assay: DEVD-AMC cleaving activity in caspase-9-depleted S100 extracts with or without XIAP-BIR3; format: biochemical; conditions: 10 nM caspase-9 protein; XIAP-BIR3 20 nM; DEVD-AMC 100 μM; 30 minutes
T7 construct: purified XIAP-BIR3 (20 nM)
Experimental: To test for enzymatic activity, caspase-9-depleted S100 extracts (20 μg) from Apaf-1-deficient mouse embryonic fibroblasts were incubated with recombinant Apaf-1, cytochrome c, dATP, and equal amounts (10 nM) of WT caspase-9 or the caspase-9 Δlinker mutant protein in the presence (+) or absence (−) of purified XIAP-BIR3 (20 nM). The reactions were carried out in the presence of the peptide substrate DEVD-AMC (100 μM) for 30 minutes, and substrate cleavage was measured by luminescence spectrometry.
To test for enzymatic activity, caspase-9-depleted S100 extracts (20 μg) from Apaf-1-deficient mouse embryonic fibroblasts were incubated with recombinant Apaf-1, cytochrome c, dATP, and equal amounts (10 nM) of WT caspase-9, caspase-9 AT316, 317SG, or AT316, 317GG mutant proteins in the presence (+) or absence (−) of purified XIAP-BIR3 (20 nM). The reactions were carried out in the presence of the peptide substrate DEVD-AMC (100 μM) for 30 minutes, and substrate cleavage was measured by luminescence spectrometry.

T5 sequence (P98170 whole entry): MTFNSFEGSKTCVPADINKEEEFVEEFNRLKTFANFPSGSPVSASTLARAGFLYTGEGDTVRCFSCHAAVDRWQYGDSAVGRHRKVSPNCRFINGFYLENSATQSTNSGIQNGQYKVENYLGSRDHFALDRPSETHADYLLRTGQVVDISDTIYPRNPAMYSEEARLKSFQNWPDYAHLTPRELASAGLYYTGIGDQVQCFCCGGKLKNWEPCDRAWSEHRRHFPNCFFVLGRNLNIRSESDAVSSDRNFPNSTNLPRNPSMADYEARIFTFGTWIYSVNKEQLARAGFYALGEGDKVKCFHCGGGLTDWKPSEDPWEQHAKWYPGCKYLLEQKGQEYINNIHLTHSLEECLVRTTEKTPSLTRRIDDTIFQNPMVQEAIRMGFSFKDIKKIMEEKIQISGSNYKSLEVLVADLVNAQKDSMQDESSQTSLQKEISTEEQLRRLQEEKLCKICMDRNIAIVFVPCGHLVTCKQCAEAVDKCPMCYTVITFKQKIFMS
T1 sequence (P98170 238-358 limits assumed): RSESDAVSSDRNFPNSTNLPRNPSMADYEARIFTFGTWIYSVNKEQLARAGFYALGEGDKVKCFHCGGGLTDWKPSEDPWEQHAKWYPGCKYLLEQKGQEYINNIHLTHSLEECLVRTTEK
T4 sequence (P98170 238-358 limits assumed): as above
T7 sequence (P98170 238-358 limits assumed): as above
T2 sequence (P98170 238-358 limits assumed): as above
T6 sequence (P98170 whole entry): as the sequence (P98170 whole entry) above
T3 sequence (P98170 whole entry, the tested form may be a part): as the sequence (P98170 whole entry) above

AVPIAQK [Smac-N7, AVPIAQK]
inhibition of binding of caspase-9-p12 to BIR3 [1]: completely inhibited

ATPFQEGLRTFDQLD [linker peptide]
interaction with isolated BIR3 domain of XIAP [2]: able to interact | interaction with full length XIAP [3]: able to interact | inhibition of Smac/DIABLO binding to BIR3 [4]: completely inhibited | promoting caspase-3 activation in XIAP containing extracts [5]: as effective in promoting caspase-3 activation as the Smac-N5 or N7 peptides

B1: triple mutant procaspase-9 (E306/D315/D330A) (enzyme)
chain: MDEADRRLLRRCRLRLVEELQVDQLWDALLSRELFRPHMIEDIQRAGSGSRRDQARQLIIDLETRGSQALPLFISCLEDTGQDMLASFLRTNRQAAKLSKPTLENLTPVVLRPEIRKPEVLRPETPRPVDIGSGGFGDVGALESLRGNADLAYILSMEPCGHCLIINNVNFCRESGLRTRTGSNIDCEKLRRRFSSLHFMVEVKGDLTAKKMVLALLELAQQDHGALDCCVVVILSHGCQASHLQFPGAVYGTDGCPVSVEKIVNIFNGTSCPSLGGKPKLFFIQACGGEQKDHGFEVASTSPEDASPGSNPEPAATPFQEGLRTFDQLAAISSLPTPSDIFVSYSTFPGFVSWRDPKSGSWYVETLDDIFEQWAHSEDLQSLLLRVANAVSVKGIYKQMPGCFNFLRKKLFFKTS
notes: Unprocessed protein; also called uncleavable caspase-9; mutant caspase-9
binding result [6]: no binding | processing procaspase-3 C163A or inducing DEVD-AMC cleavage [7]: as efficient as the fully processed WT caspase-9 | binding of XIAP by Far Western ([8]; proteins on nitrocellulose membrane, denatured and renatured): not able to bind

B2: Δlinker: caspase-9 with residues 316 to 330 of SEQ ID NO:1 deleted (protein, listed as Homo sapiens)
chain: MDEADRRLLRRCRLRLVEELQVDQLWDALLSRELFRPHMIEDIQRAGSGSRRDQARQLIIDLETRGSQALPLFISCLEDTGQDMLASFLRTNRQAAKLSKPTLENLTPVVLRPEIRKPEVLRPETPRPVDIGSGGFGDVGALESLRGNADLAYILSMEPCGHCLIINNVNFCRESGLRTRTGSNIDCEKLRRRFSSLHFMVEVKGDLTAKKMVLALLELAQQDHGALDCCVVVILSHGCQASHLQFPGAVYGTDGCPVSVEKIVNIFNGTSCPSLGGKPKLFFIQACGGEQKDHGFEVASTSPEDESPGSNPEPDAISSLPTPSDIFVSYSTFPGFVSWRDPKSGSWYVETLDDIFEQWAHSEDLQSLLLRVANAVSVKGIYKQMPGCFNFLRKKLFFKTS
enzymatic activity (DEVD-AMC cleaving) in presence of XIAP-BIR3 [9]: did not inhibit enzymatic activity, even in the presence of XIAP-BIR3 | ability to interact with BIR3 (Far western, FIG. 12B) ([8]; recombinant caspase-9 mutants): lost significantly the ability to interact

From patent US20020160975A1, “Conserved XIAP-interaction motif in caspase-9 and Smac/DIABLO for mediating apoptosis” (Thomas Jefferson University, priority 2001, published 2002)
